Reference: patent publication US8637525B2, “Compounds for the reduction of beta-amyloid production” (Bristol-Myers Squibb Company, priority 2009, dated 2014)
pIC50: −log10 of the molar value.

System: Aβ1-42 production
Experiment: Cellular assay for inhibition of Aβ1-42 production (H4 APP751 SWE clone 8.20)
Format: cell-based
Conditions: 19 h, H4 APP751 SWE clone 8.20 cells, 19 h incubation; class symbols; read-out: Activity Rating (Aβ42 cellular IC50)
Procedure, shortened: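 Cells incubate with compound for 19 h (37 °C, 5% CO2), the plate is briefly spun, and antibody mix is added straight to the wells: Wallac-conjugated 565 against the Aβ42 C-terminal neoepitope and APC-conjugated 26D6 against the Aβ N-terminus. After overnight sealing at 4 °C, signal is counted and IC50 fitted.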

| SMILES | pIC50 |
| --- | --- |
| CCNc1nc(Nc2ccc(-n3ncnc3C)c(F)c2)nc2c1CN(C(=O)C1CC1)CC2c1ccccc1 (stereo not shown) [Example 144, cyclopropyl(4-(ethylamino)-2-(3-fluoro-4-(5-methyl-1H-1,2,4-triazol-1-yl)phenylamino)-8-phenyl-7,8-dihydropyrido[4,3-d]pyrimidin-6(5H)-yl)methanone] | 7.00 to 8.00 |
| CCNc1nc(Nc2ccc(-n3cnc(C)n3)c(F)c2)nc2c1CN(C(=O)C1CC1)CC2c1ccccc1 (stereo not shown) [Example 143, cyclopropyl(4-(ethylamino)-2-(3-fluoro-4-(3-methyl-1H-1,2,4-triazol-1-yl)phenylamino)-8-phenyl-7,8-dihydropyrido[4,3-d]pyrimidin-6(5H)-yl)methanone] | 7.00 to 8.00 |
| COc1cc(Nc2nc3c(c(N(C)C)n2)CCC3c2ccc(OC(F)(F)F)cc2)ccc1-n1cnc(Cl)c1 (racemic) [Example 100, N^2-(4-(4-Chloro-1H-imidazol-1-yl)-3-methoxyphenyl)-N^4,N^4-dimethyl-7-(4-(trifluoromethoxy)phenyl)-6,7-dihydro-5H-cyclopenta[d]pyrimidine-2,4-diamine] | 8.00 to 8.82 |
| COc1cc(Nc2nc3c(c(N4C[C@@H]5C[C@H]4CO5)n2)CCC3c2ccc(F)cc2)ccc1-n1cnc(Cl)c1 (single isomer, unassigned) [Example 18B] | 7.00 to 8.00 |
| CCN(C)c1nc(Nc2ccc(-n3cnc(Cl)c3)c(OC)c2)nc2c1CCNC2c1ccc(F)cc1 (stereo not shown) [Example 166, N2-(4-(4-chloro-1H-imidazol-1-yl)-3-methoxyphenyl)-N4-ethyl-8-(4-fluorophenyl)-N4-methyl-5,6,7,8-tetrahydropyrido[3,4-d]pyrimidine-2,4-diamine] | 6.00 to 7.00 |
| CCNc1nc(Nc2ccc(-n3cnc(C)n3)c(OC)c2)nc2c1COCC2c1ccc(F)cc1 (racemic) [Example 55, N4-ethyl-8-(4-fluorophenyl)-N2-(3-methoxy-4-(3-methyl-1H-1,2,4-triazol-1-yl)phenyl)-7,8-dihydro-5H-pyrano[4,3-d]pyrimidine-2,4-diamine] | 7.00 to 8.00 |
| CNc1nc(Nc2ccc(C#N)cc2)nc2c1CN(S(C)(=O)=O)CC2c1ccc(F)cc1 (stereo not shown) [Example 207, 4-(8-(4-fluorophenyl)-4-(methylamino)-6-(methylsulfonyl)-5,6,7,8-tetrahydropyrido[4,3-d]pyrimidin-2-ylamino)benzonitrile] | 6.00 to 7.00 |
| COc1cc(Nc2nc3c(c(N4CC(F)(F)C4)n2)CCC3c2ccc(F)cc2)ccc1-n1cnc(Cl)n1 (single isomer, unassigned) [Example 17B, N-(4-(3-chloro-1H-1,2,4-triazol-1-yl)-3-methoxyphenyl)-4-(3,3-difluoroazetidin-1-yl)-7-(4-fluorophenyl)-6,7-dihydro-5H-cyclopenta[d]pyrimidin-2-amine] | 7.00 to 8.00 |
| Cc1ncnn1-c1ccc(Nc2nc3c(c(N4CC(F)(F)C4)n2)CCC3c2ccc(F)cc2)cc1F (racemic) [Example 16, 4-(3,3-difluoroazetidin-1-yl)-N-(3-fluoro-4-(5-methyl-1H-1,2,4-triazol-1-yl)phenyl)-7-(4-fluorophenyl)-6,7-dihydro-5H-cyclopenta[d]pyrimidin-2-amine] | 7.00 to 8.00 |
| CNc1nc(Nc2ccc(-n3cnc(Cl)c3)c(OC)c2)nc2c1COCC2c1ccc(F)cc1 (racemic) [Example 60, N2-(4-(4-chloro-1H-imidazol-1-yl)-3-methoxyphenyl)-8-(4-fluorophenyl)-N4-methyl-7,8-dihydro-5H-pyrano[4,3-d]pyrimidine-2,4-diamine] | 8.00 to 8.82 |

Same assay, conditions: 19 h, H4 APP751 SWE clone 8.20 cells, 19 h incubation; read-out: Activity Rating (Aβ42 cellular IC50), numeric value

| SMILES | pIC50 |
| --- | --- |
| COc1cc(Nc2nc3c(c(N4CC[C@@H](F)C4)n2)COCC3c2ccc(OC(F)(F)F)cc2)ccc1-n1cnc(Cl)c1 (stereo partly shown) [Example 123B] | 6.43 |
| COc1cc(Nc2nc3c(c(N4CC(Cl)C4)n2)CCC3c2ccccc2)ccc1-n1cnc(Cl)c1 (stereo not shown) [Example 181B, N-(4-(4-chloro-1H-imidazol-1-yl)-3-methoxyphenyl)-4-(3-chloroazetidin-1-yl)-7-phenyl-6,7-dihydro-5H-cyclopenta[d]pyrimidin-2-amine] | 7.30 |
| CNc1nc(Nc2ccc(-n3cnc(Cl)c3)c(OC)c2)nc2c1CCCC2c1ccccc1 (stereo not shown) [Example 203, N2-(4-(4-chloro-1H-imidazol-1-yl)-3-methoxyphenyl)-N4-methyl-8-phenyl-5,6,7,8-tetrahydroquinazoline-2,4-diamine] | 7.72 |
| CCN(C)c1nc(Nc2ccc(-n3cnc(Cl)c3)c(OC)c2)nc2c1CN(C)CC2c1ccc(F)cc1 (stereo not shown) [Example 165B, N2-(4-(4-chloro-1H-imidazol-1-yl)-3-methoxyphenyl)-N4-ethyl-8-(4-fluorophenyl)-N4,6-dimethyl-5,6,7,8-tetrahydropyrido[4,3-d]pyrimidine-2,4-diamine] | 6.74 |

Same assay, conditions: H4 APP751 SWE clone 8.20 cells, 19 h incubation; class symbols; read-out: Activity Rating (Aβ42 cellular IC50)

| SMILES | pIC50 |
| --- | --- |
| CNc1nc(Nc2ccc(-n3cnc(C)n3)c(OC)c2)nc2c1CN(C)CC2c1ccc(F)cc1 (single isomer, unassigned) [Example 198A, 8-(4-fluorophenyl)-N2-(3-methoxy-4-(3-methyl-1H-1,2,4-triazol-1-yl)phenyl)-N4,6-dimethyl-5,6,7,8-tetrahydropyrido[4,3-d]pyrimidine-2,4-diamine] | 6.00 to 7.00 |
| COc1cc(Nc2nc3c(c(N4CC=C(F)CC4)n2)CCC3c2ccc(F)cc2)ccc1-n1cnc(Cl)c1 (stereo not shown) [Example 40A, N-(4-(4-chloro-1H-imidazol-1-yl)-3-methoxyphenyl)-4-(4-fluoro-5,6-dihydropyridin-1(2H)-yl)-7-(4-fluorophenyl)-6,7-dihydro-5H-cyclopenta[d]pyrimidin-2-amine] | 8.00 to 8.82 |
| COc1cc(Nc2nc3c(c(N(C)C)n2)COCC3c2ccccc2)ccc1-n1cnc(Cl)c1 (single isomer, unassigned) [Example 53B, N^2-(4-(4-Chloro-1H-imidazol-1-yl)-3-methoxyphenyl)-N^4,N^4-dimethyl-8-phenyl-7,8-dihydro-5H-pyrano[4,3-d]pyrimidine-2,4-diamine] | 7.00 to 8.00 |
| COc1cc(Nc2nc3c(c(N4CC(C)(O)C4)n2)CCC3c2ccc(F)cc2)ccc1-n1cnc(Cl)c1 (stereo not shown) [Example 189A, 1-(2-(4-(4-chloro-1H-imidazol-1-yl)-3-methoxyphenylamino)-7-(4-fluorophenyl)-6,7-dihydro-5H-cyclopenta[d]pyrimidin-4-yl)-3-methylazetidin-3-ol] | 8.00 to 8.82 |
| COc1cc(Nc2nc3c(c(N4CC(F)C4)n2)CCC3c2ccccc2)ccc1-n1cnc(Cl)c1 (stereo not shown) [Example 182A, N-(4-(4-chloro-1H-imidazol-1-yl)-3-methoxyphenyl)-4-(3-fluoroazetidin-1-yl)-7-phenyl-6,7-dihydro-5H-cyclopenta[d]pyrimidin-2-amine] | 8.00 to 8.82 |
| CNc1nc(Nc2ccc(C#N)c(C(F)(F)F)c2)nc2c1CCC2c1ccccc1 (stereo not shown) [Example 238, 4-(4-(methylamino)-7-phenyl-6,7-dihydro-5H-cyclopenta[d]pyrimidin-2-ylamino)-2-(trifluoromethyl)benzonitrile] | 6.00 to 7.00 |
| CCNc1nc(Nc2ccc(-n3cnc(Cl)c3)c(OC)c2)nc2c1CN(S(=O)(=O)CC)CC2c1ccccc1 (stereo not shown) [Example 138A, N2-(4-(4-chloro-1H-imidazol-1-yl)-3-methoxyphenyl)-N4-ethyl-6-(ethylsulfonyl)-8-phenyl-5,6,7,8-tetrahydropyrido[4,3-d]pyrimidine-2,4-diamine] | 8.00 to 8.82 |
| COc1cc(Nc2nc(N[C@H](C)C3CC3)c3c(n2)C(c2ccc(F)cc2)CC3)ccc1-n1cnc(Cl)c1 (single isomer, unassigned) [Example 49B] | 7.00 to 8.00 |
| CNc1nc(Nc2ccc(-n3cnc(C)n3)c(OC)c2)nc2c1COCC2c1ccc(F)cc1 (stereo not shown) [Example 54A, 8-(4-fluorophenyl)-N2-(3-methoxy-4-(3-methyl-1H-1,2,4-triazol-1-yl)phenyl)-N4-methyl-7,8-dihydro-5H-pyrano[4,3-d]pyrimidine-2,4-diamine] | 7.00 to 8.00 |
| CNc1nc(Nc2ccc(-n3cnc(Cl)c3)c(OC)c2)nc2c1CCC2c1cc(F)c(F)c(F)c1 (single isomer, unassigned) [Example 103A, N^2-(4-(4-chloro-1H-imidazol-1-yl)-3-methoxyphenyl)-N^4-methyl-7-(3,4,5-trifluorophenyl)-6,7-dihydro-5H-cyclopenta[d]pyrimidine-2,4-diamine] | 8.00 to 8.82 |
| COc1cc(Nc2nc3c(c(N4CC[C@@H](F)C4)n2)CCC3c2ccc(F)cc2)ccc1-n1cnc(Cl)c1 (stereo partly drawn) [Example 38B, N-(4-(4-chloro-1H-imidazol-1-yl)-3-methoxyphenyl)-7-(4-fluorophenyl)-4-((R)-3-fluoropyrrolidin-1-yl)-6,7-dihydro-5H-cyclopenta[d]pyrimidin-2-amine] | 7.00 to 8.00 |
| COc1cc(Nc2nc3c(c(N4CCC(O)(C(F)(F)F)C4)n2)CCC3c2ccc(F)cc2)ccc1-n1cnc(Cl)c1 (single isomer, unassigned) [Example 28A, 1-(2-(4-(4-chloro-1H-imidazol-1-yl)-3-methoxyphenylamino)-7-(4-fluorophenyl)-6,7-dihydro-5H-cyclopenta[d]pyrimidin-4-yl)-3-(trifluoromethyl)pyrrolidin-3-ol] | 7.00 to 8.00 |
| COc1cc(Nc2nc3c(c(N4CCC4)n2)CCC3c2ccccc2)ccc1-n1cnc(Cl)c1 (single isomer, unassigned) [Example 6B, 4-(azetidin-1-yl)-N-(4-(4-chloro-1H-imidazol-1-yl)-3-methoxyphenyl)-7-phenyl-6,7-dihydro-5H-cyclopenta[d]pyrimidin-2-amine] | 7.00 to 8.00 |
| COc1cc(Nc2nc3c(c(N4CC(F)(F)C4)n2)COCC3c2ccc(Cl)cc2)ccc1-n1cnc(Cl)c1 (single isomer, unassigned) [Example 66A, N-(4-(4-chloro-1H-imidazol-1-yl)-3-methoxyphenyl)-8-(4-chlorophenyl)-4-(3,3-difluoroazetidin-1-yl)-7,8-dihydro-5H-pyrano[4,3-d]pyrimidin-2-amine] | 6.00 to 7.00 |
